In patent US12053476B2, “Compounds, compositions and methods for cancer patient stratification and cancer treatment” (BAYER PHARMA AKTIENGESELLSCHAFT, priority 2016, dated 2024):
pEC50: −log10 of the molar value.

What was measured:
[1] = In vitro metabolic stability in cryopreserved human hepatocytes; type: in vitro ADME; settings: 1 μM test compound
Description: Investigation of In Vitro Metabolic Stability in Cryopreserved Human Hepatocytes (Including Calculation of Hepatic In Vivo Blood Clearance (CL) and Maximal Oral Bioavailability (Fmax))
Cryopreserved Hepatocytes (e.g. purchased from Celsis InVitroTechnologies) were briefly thawed, washed with 45 mL pre-warmed in in vitro GRO HT medium and centrifuged for 5 min at 50×g. The cell pellet was resuspended in 5 ml of Krebs-Henseleit […] (KHB). Cell viability was determined by trypan blue exclusion.
For the metabolic stability assay liver cells were distributed in WME containing 5% FCS to glass vials at a density of 1.0×10^6 vital cells/ml. The test compound was added to a final concentration of 1 μM. During incubation, the hepatocyte suspensions were continuously shaken at 580 rpm and aliquots were taken at 2, 8, 16, 30, 45 and 90 min, to which equal volumes of cold methanol were immediately added. Samples were frozen at −20° C. over night, after subsequently centrifuged for 15 minutes at 3000 rpm and the supernatant was analyzed with an Agilent 1290 HPLC-system with LCMS/MS detection.
The half-life of a test compound was determined from the concentration-time plot. From the half-life the intrinsic clearances were calculated. […] The hepatic in vivo blood clearance (CL) and the maximal oral bioavailability (Fmax) was calculated.

PDE3A(677-1141) = molecular target: T1, PDE3A(677-1141) (Homo sapiens, UniProt Q14432); assay: Differential scanning fluorimetry (DSF) binding to purified PDE3A catalytic domain; settings: 5 μM PDE3A, 100 μM compound
T1 construct: purified PDE3A catalytic domain, PDE3A(677-1141)
T1 sequence (Q14432 677-1141): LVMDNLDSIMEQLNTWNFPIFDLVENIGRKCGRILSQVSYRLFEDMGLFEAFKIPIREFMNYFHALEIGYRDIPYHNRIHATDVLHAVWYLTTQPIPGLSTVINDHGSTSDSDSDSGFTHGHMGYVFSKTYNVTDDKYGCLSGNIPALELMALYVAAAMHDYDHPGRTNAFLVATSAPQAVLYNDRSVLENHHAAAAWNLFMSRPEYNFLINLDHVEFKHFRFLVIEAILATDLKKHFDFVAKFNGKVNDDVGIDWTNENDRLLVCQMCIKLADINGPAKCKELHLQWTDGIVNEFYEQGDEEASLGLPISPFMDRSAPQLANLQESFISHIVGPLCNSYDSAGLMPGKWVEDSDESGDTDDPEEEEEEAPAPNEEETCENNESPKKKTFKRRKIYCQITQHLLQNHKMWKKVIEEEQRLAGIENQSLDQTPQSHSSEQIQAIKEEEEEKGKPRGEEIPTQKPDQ
Description: Binding buffer: 20 mM Hepes pH 7.4, 100 μM TCEP, 1 mM MgCl2, 150 mM NaCl.

PDE3A = molecular target: T2, PDE3A (Homo sapiens, UniProt Q14432); assay: Linker-affinity purification of molecular target of DNMDP and immunoblotting (competition); type: binding; settings: HeLa cell lysate, 10 μM compound
T2 construct: endogenous in cells; host or cells: HeLa
T2 sequence (Q14432 whole entry): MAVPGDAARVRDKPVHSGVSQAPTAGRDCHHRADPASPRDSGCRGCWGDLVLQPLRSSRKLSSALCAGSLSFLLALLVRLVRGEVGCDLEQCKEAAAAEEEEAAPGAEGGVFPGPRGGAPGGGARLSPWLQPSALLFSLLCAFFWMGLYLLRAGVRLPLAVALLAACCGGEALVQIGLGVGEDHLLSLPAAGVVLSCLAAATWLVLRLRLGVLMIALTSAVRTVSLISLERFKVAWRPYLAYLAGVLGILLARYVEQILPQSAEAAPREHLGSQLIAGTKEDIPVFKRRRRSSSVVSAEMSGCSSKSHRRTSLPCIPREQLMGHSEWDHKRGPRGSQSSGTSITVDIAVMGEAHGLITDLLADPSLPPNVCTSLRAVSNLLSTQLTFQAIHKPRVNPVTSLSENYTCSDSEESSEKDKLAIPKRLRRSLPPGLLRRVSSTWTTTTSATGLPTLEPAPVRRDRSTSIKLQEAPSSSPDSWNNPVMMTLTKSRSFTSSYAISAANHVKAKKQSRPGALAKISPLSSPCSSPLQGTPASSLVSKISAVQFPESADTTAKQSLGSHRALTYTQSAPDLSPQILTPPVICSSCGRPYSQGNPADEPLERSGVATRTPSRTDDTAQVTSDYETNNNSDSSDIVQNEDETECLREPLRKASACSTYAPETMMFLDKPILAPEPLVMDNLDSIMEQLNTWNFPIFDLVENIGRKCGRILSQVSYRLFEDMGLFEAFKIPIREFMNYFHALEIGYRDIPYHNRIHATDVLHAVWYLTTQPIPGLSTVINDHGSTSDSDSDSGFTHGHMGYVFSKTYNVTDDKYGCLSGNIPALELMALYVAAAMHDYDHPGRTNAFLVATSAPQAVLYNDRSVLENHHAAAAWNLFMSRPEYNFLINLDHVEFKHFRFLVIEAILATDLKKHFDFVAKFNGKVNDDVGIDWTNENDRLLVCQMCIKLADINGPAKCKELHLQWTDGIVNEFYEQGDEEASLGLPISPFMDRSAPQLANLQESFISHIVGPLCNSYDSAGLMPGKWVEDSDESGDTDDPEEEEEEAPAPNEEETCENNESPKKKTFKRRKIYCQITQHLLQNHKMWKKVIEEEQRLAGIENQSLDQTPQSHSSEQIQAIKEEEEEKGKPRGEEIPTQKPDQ
Description: To identify the molecular target of DNMDP, an affinity purification was performed using an (R)-des-nitro-DNMDP solid-phase tethered linker analogue (FIG. 10A) incubated with HeLa cell lysate. […] It was competed for the molecular target by adding either an excess of trequinsin or separate enantiomers of DNMDP, where only the (R)-enantiomer was cytotoxic. […] Binding of PDE3A to the linker analogue was blocked by both trequinsin and (R)-DNMDP, but not by the non-cytotoxic enantiomer (S)-DNMDP (FIG. 9C). Thus both trequinsin and (R)-DNMDP prevented the binding of PDE3A to the tethered DNMDP analogue, and it was concluded that both molecules bind PDE3A directly.
HeLa cells were washed with ice-cold PBS before lysed with NP-40 lysis buffer (150 mM NaCl, 10% glycerol, 50 mM Tris-Cl pH 8.0, 50 mM MgCl2, 1% NP-40) supplemented with EDTA-free protease inhibitors (Roche) and phosphatase inhibitor mixtures I and II (Calbiochem). Cell lysates were incubated on ice for at least 2 minutes and subsequently centrifuged for 10 minutes at 4° C. at 15,700×g after which the supernatant was quantified using BCA protein assay kit (Pierce). […] total HeLa cell lysate was incubated with 3 μl Affi-Gel 102 resin (BioRad) coupled to affinity linker DNMDP-2L in a total volume of 400 μl for four hours. Prior to incubation, indicated compounds were added to affinity purifications at a final concentration of 10 μM. Samples were washed three times with lysis buffer containing corresponding compound concentrations of 10 μM. Proteins bound to Affi-Gel 102 resin were reduced, denatured, and separated using Tris-Glycine gels (Novex) and transferred to nitrocellulose membranes using the iBlot transfer system (Novex). Membranes were incubated overnight at 4° C. with primary antibodies against PDE3A (1:1000, Bethyl). Incubation with secondary antibodies (1:20,000, LI-COR Biosciences) for two hours at room temperature and subsequent detection (Odyssey Imaging System, LI-COR Biosciences) were performed according to manufacturer's recommendations.

HeLa cells [2] = assay: Compound sensitivity testing in cell lines (cell viability, 48 h); type: cell-based, human
Description: 1500 NCI-H1734 or 1000 A549 cells were plated in a 384-well plate in 40 μl of RPMI supplemented with 10% Fetal Bovine Serum and 1% Pen/Strep. 24 hours after plating, a compound-library of 1924 small molecules was added at a concentration of 10 μM. Staurosporine was used a positive control for cytotoxicity at a concentration of 10 μM, and DMSO was used a negative control at a concentration of 1%. All compounds were incubated for 48 hours with indicated small molecules. After 48 hours, 384-well plates were removed from the incubator and allowed to cool to room temperature for 20 minutes. Cell viability was assessed by adding 40 μl of a 25% CELLTITERGLO® (Promega) in PBS with a THERMO COMBI™ or multichannel-pipette and incubated for 10 minutes. The luminescence signal was read using a Perkin-Elmer EnVision. Viability percentage was calculated by normalizing to DMSO controls.
1000 HeLa (DMEM), 1000 A549 (RPMI), 500 MCF-7 (DMEM), 4000 PC3 (F12-K), 1000 NCI-H2122 (RPMI) or 1500 NCI-H1563 (RPMI) cells were plated in a 384-well plate in 40 μl of corresponding growth media supplemented with 10% Fetal Bovine Serum. 24 hours after plating, indicated compounds were added at indicated concentrations and incubated for 48 hours. Cell viability was assessed as described in Compound library screening in NCI-H1734 and A549 cell lines.

HeLa cells [3] = assay: Follow-up dose-dependent rescue of DNMDP cytotoxicity (competition with DNMDP); type: cell-based, human; settings: co-treatment with DNMDP, 48 h; for rescue of DNMDP cytotoxicity / competition (in words): up to 10 μM
HeLa cells [4] = assay: Bioactives screen to rescue DNMDP induced cytotoxicity; type: cell-based, human; settings: 20 μM bioactive + 30 nM DNMDP, 48 h
Excerpt: Most importantly, PDE4 competitive inhibitors and PDE4 allosteric modulators with similar IC50s for cAMP hydrolysis in vitro had different cellular activities and safety profiles in animal studies (Burgin et al., Nat Biotechnol 28, 63-70, 2010). To evaluate whether PDE inhibitors or other small molecules compete with DNMDP, the PHARMAKON 1600 collection of 1600 bioactive compounds (PHARMAKON 1600 is a unique collection of 1600 known drugs from US and International Pharmacopeia) was screened to identify compounds that were able to rescue cell death induced by DNMDP. HeLa cells were co-treated with 30 nM DNMDP (the EC70 concentration) and 20 μM of each bioactive compound. Cell viability after 48-hour treatment was assessed by ATP […] as described earlier.
Bioactives Screen to Rescue DNMDP Induced Cytotoxicity 1000 HeLa cells were plated in a 384-well plate in 40 μl of DMEM supplemented with 10% Fetal Bovine Serum and 1% Pen/Strep. 24 hours after plating, a compound-library of 1600 bioactive molecules (Pharmacon) was added at a concentration of 20 μM. In parallel to bioactive compound incubation, DNMDP was added to a final concentration of 30 nM and incubated for 48 hours. Cell viability was assessed as described in Compound library screening in NCI-H1734 and A549 cell lines. Linker-Affinity Purification of Molecular Target of DNMDP and Immunoblotting

Compound | Tm (PDE3A(677-1141)) [°C] | blocking of PDE3A binding to the tethered linker analogue (PDE3A) | rescue of DNMDP cytotoxicity / competition (in words) (HeLa cells [3]) | other results
C[C@@H]1CC(=O)NN=C1c1ccc(N2CCOCC2)c(F)c1 (single isomer, unassigned) [Compound 3] | 59.0 ± 0.0 |  |  | mean metabolic stability (Fmax) [1]: 49%; ΔTm at 100 µM (PDE3A(677-1141)): 6.6 °C
CCN(CC)c1ccc(C2=NNC(=O)C[C@H]2C)cc1[N+](=O)[O-] [(R)-DNMDP, (R)-6-(4-(diethylamino)-3-nitrophenyl)-5-methyl-4,5-dihydropyridazin-3(2H)-one] |  | blocked |  | 
CCN(CC)c1ccc(C2=NNC(=O)C[C@@H]2C)cc1[N+](=O)[O-] [(S)-DNMDP] |  | not |  | 
O=C1CN2Cc3c(ccc(Cl)c3Cl)N=C2N1 [Anagrelide, 6,7-dichloro-1,5-dihydroimidazo (2,1-b)quinazolin-2(3H)-one, reference compound] | 56.6 ± 0.0 |  |  | 
COc1cc2c(cc1OC)-c1c/c(=N\c3c(C)cc(C)cc3C)n(C)c(=O)n1CC2 [Trequinsin, 9,10-dimethoxy-3-methyl-2-(2,4,6-trimethylphenyl)imino-6,7-dihydropyrimido[6,1-a]isoquinolin-4-one, reference compound] | 66.2 ± 0.0 | blocked |  | effect on HeLa cell viability (in words) (HeLa cells [2]): did not affect HeLa cell viability in any detectable way; pEC50 (HeLa cells [3]; Homo sapiens, read-out: RC50 (the concentration at which it achieved 50% rescue)): > 9.00
CN(C(=O)CCCOc1ccc2[nH]c(=O)ccc2c1)C1CCCCC1 [cilostamide, N-cyclohexyl-N-methyl-4-[(2-oxo-1H-quinolin-6-yl)oxy]butanamide] |  |  | able to rescue DNMDP cytotoxicity in a dose-dependent manner | 
O=C1CCc2cc(OCCCCc3nnnn3C3CCCCC3)ccc2N1 [cilostazol, 6-[4-(1-cyclohexyl-1H-tetrazol-5-yl)butoxy]-3,4-dihydro-2(1H)-quinolinone] |  |  |  | rescue of cell death induced by DNMDP (rank in screen) (HeLa cells [4]): three most potent compounds
CC(C)C(=O)c1c(C(C)C)nn2ccccc12 [idubulast] |  |  | not effective competitors | 
Cc1[nH]c(=O)c(C#N)cc1-c1ccncc1 [milrinone, 2-methyl-6-oxo-1,6-dihydro-3,4′-bipyridine-5-carbonitrile] |  |  | able to rescue DNMDP cytotoxicity in a dose-dependent manner | rescue of cell death induced by DNMDP (rank in screen) (HeLa cells [4]): three most potent compounds
CCCc1nn(C)c2c(=O)[nH]c(-c3cc(S(=O)(=O)N4CCN(C)CC4)ccc3OCC)nc12 [sildenafil, 1-[4-ethoxy-3-(6,7-dihydro-1-methyl-7-oxo-3-propyl-1H-pyrazolo[4,3-d]pyrimidin-5-yl)phenylsulfonyl]-4-methylpiperazine] |  |  | not effective competitors | 
